{"source": "patent EP2998292A1", "about": "“Naphthyl sulfonamide derivatives as KEAP-1 modulators for the treatment of diabetes, obesity, dyslipidemia and related disorders” (SANOFI, priority 2014, dated 2016)"}
{"target": "T1, human Keap1 kelch domain (amino acids Ala321-Thr609) (Homo sapiens, UniProt Q14145)", "T1 construct": "human Keap1 kelch domain (amino acids Ala321-Thr609)", "T1 sequence (Q14145 321-609)": "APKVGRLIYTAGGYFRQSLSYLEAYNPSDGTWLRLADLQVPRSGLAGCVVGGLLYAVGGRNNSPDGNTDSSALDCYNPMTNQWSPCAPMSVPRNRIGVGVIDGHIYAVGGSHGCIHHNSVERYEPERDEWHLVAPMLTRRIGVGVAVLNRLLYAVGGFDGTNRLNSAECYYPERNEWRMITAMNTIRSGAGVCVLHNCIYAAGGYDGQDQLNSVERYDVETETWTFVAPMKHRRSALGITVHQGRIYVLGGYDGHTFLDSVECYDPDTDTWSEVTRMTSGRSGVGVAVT", "assay": "Keap1-Nrf2 peptide binding assay (fluorescence polarisation)", "conditions": "binding of Keap1 kelch domain (20 nM) to fluorescently labeled Nrf2 peptide Alexa633-AFFAQLQLDEETGEFL (50 nM); ambient temperature", "procedure": "Keap1-Nrf2 peptide binding assay\nA fluorescence polarisation assay was used to measure binding of the human Keap1 kelch domain (amino acids Ala321-Thr609) to a fluorescently labeled peptide containing a Keap1 binding site of human Nrf2 (Alexa633-AFFAQLQLDEETGEFL; JPT Technologies, Berlin, Germany). Two microliters of test compound in reaction buffer (phosphate-buffered saline, 2 mM DL-dithiothreitol, 0.015 % (v/v) Brij-35) containing 6 % (v/v) DMSO were mixed with two microliters of the Keap1 kelch domain in reaction buffer in a black 384-well small volume microtiter plate and incubated at ambient temperature for 15 minutes. Thereafter, two microliters were added of the fluorescently labeled Nrf2 peptide in reaction buffer, and the mixture was incubated for a further 30 minutes at ambient temperature. Final concentrations of the Keap1 kelch domain and the fluorescently labeled Nrf2 peptide were 20 nM and 50 nM, respectively. Fluorescence polarization (FP) was measured at excitation and emission wavelengths of 635 nm and 660 nm, respectively. Positive controls for binding (two microliters of reaction buffer containing 6 % (v/v) DMSO instead of test compound in the same buffer) and negative controls (as positive controls, but without Keap1 kelch domain) were included on each microtiter plate. Data were expressed as percent-inhibition values: percent inhibition = 100⋅(1-(|FPcompound-FPnegative control|)/(|FPpositive control-FPnegative control|)) [formula]\nIC50 values were determined by testing different compound concentrations and fitting the resulting percent-inhibition values to the following equation using XLFit4: percent inhibition = A + (B-A)/(1 + (((IC50)/([Compound])))^D) [formula]\nParameter A was set to zero, pre-fit values for parameters B and D were set to 100 and 1, respectively.", "units": {"IC50": "µM"}}
{"compound": "1-[4-[(5-chloro-1,3-dimethyl-pyrazol-4-yl)sulfonylamino]-2-naphthyl]piperidine-3-carboxylic acid; 2,2,2-trifluoroacetic acid [Example 11]", "IC50": 26.7}
{"compound": "CCCCCC(CC(=O)O)c1cc(NS(=O)(=O)c2c(C)c(C)cc(C)c2C)c2ccccc2c1", "note": "(stereo not shown) [Example 1, 3-[4-[(2,3,5,6-tetramethylphenyl)sulfonylamino]-2-naphthyl]octanoic acid]", "IC50": 13}
{"compound": "Cc1cc(C)c(C)c(S(=O)(=O)Nc2cc(C3CCCC3C(=O)O)cc3ccccc23)c1C", "note": "(stereo not shown) [Example 3, 2-[4-[(2,3,5,6-tetramethylphenyl)sulfonylamino]-2-naphthyl]cyclopentaneca rboxylic acid]", "IC50": 5.2}
{"compound": "Cc1cc(C)c(C)c(S(=O)(=O)Nc2cc(C(CC(=O)O)c3ccccc3)cc3ccccc23)c1C", "note": "(stereo not shown) [Example 4, 3-phenyl-3-[4-[(2,3,5,6-tetramethylphenyl)sulfonylamino]-2-naphthyl]propanoic acid]", "IC50": 14.4}
{"compound": "CCCCCC(Oc1cc(NS(=O)(=O)c2c(C)c(C)cc(C)c2C)c2ccccc2c1)C(=O)O", "note": "(stereo not shown) [Example 5, 2-[[4-[(2,3,5,6-tetramethylphenyl)sulfonylamino]-2-naphthyl]oxy]heptanoic acid]", "IC50": 3.3}
{"compound": "Cc1cc(C)c(C)c(S(=O)(=O)Nc2cc(C3=CCC(C(=O)O)CC3)cc3ccccc23)c1C", "note": "(stereo not shown) [Example 9, 4-[4-[(2,3,5,6-tetramethylphenyl)sulfonylamino]-2-naphthyl]cyclohex-3-ene-1-carboxylic acid]", "IC50": 2.9}
{"compound": "Cc1cc(C)c(C)c(S(=O)(=O)Nc2cc(CC(C(=O)O)C(F)(F)F)cc3ccccc23)c1C", "note": "(stereo not shown) [Example 10, 3,3,3-trifluoro-2-[[4-[(2,3,5,6-tetramethylphenyl)sulfonylamino]-2-naphthyl]methyl]propanoi c acid]", "IC50": 15.7}
{"compound": "Cc1cc(C)c(C)c(S(=O)(=O)Nc2cc(N3CCCC(C(=O)O)C3)cc3ccccc23)c1C", "note": "(stereo not shown) [Example 12, 1-[4-[(2,3,5,6-tetramethylphenyl)sulfonylamino]-2-naphthyl]piperidine-3-carboxylic acid; 2,2,2-trifluoroacetic acid]", "IC50": 8.6}
{"compound": "Cc1cc(C)c(C)c(S(=O)(=O)Nc2ccc(C(CC(=O)O)c3ccccc3)c3ccccc23)c1C", "note": "(stereo not shown) [Example 13, 3-phenyl-3-[4-[(2,3,5,6-tetramethylphenyl)sulfonylamino]-1-naphthyl]propanoic acid]", "IC50": 6.5}
{"compound": "Cc1cc(C)c(C)c(S(=O)(=O)Nc2ccc(CC(C(=O)O)c3cccc(C(F)(F)F)c3)c3ccccc23)c1C", "note": "(stereo not shown) [Example 14, 3-[4-[(2,3,5,6-tetra-methylphenyl)sulfonylamino]-1-naphthyl]-2-[3-(trifluoromethyl)phenyl]pr opanoic acid]", "IC50": 4}
